Source: patent US6017918A, “Phenyl glycine compounds and methods of treating atherosclerosis and restenosis” (Warner-Lambert Company, priority 1999, dated 2000)
pIC50: −log10 of the molar value.

Columns and labels:
[1] = system: Lp(a) production (HepG2^K17 cells); assay: LPA3 screen: inhibition of Lp(a) production in HepG2^K17 cells, Lp(a) by ELISA; assay type: cell-based; settings: 8 h, Lp(a) normalized for total protein, ^a = multiple tests
Description: The LPA3 screen is used to identify compounds that inhibit Lp(a) production. This screen employs permanently transfected HepG2 cells (HepG2^K17) that are generated using an apo(a) 17-kringle cDNA expression construct (pcDNA-AMP, In Vitrogen, Carlsbad, Calif.) in accordance with methods that are well-known in molecular biology.
HepG2^K17 cells are seeded in 96-well plates at a density of 75,000 cells per well in 0.25 mL of Dulbecco's Modified Eagle Media (DMEM) containing 10% fetal bovine serum (FBS). Seeded plates are incubated overnight in a 37° C., 5% CO2 /95% […] incubator. The media is removed, replaced with (1) fresh media, or (2) fresh media plus 0.3 to 50 μM of a compound of the present invention in 20 μL of PBS, and the plates returned to the incubator for 8 hours. After the additional 8 hours of incubation, Lp(a) is assayed in the media by ELISA. Cells are digested with 0.5N NaOH overnight and assayed for total protein. Lp(a) values are normalized for total protein content.

[2] = system: apolipoprotein(a), [apo(a)], apolipoproteinB-100, [apoB-100], coupling reaction that generates Lp(a); assay: LPABC screen: lipoprotein(a) biochemical coupling assay, Lp(a) by ELISA; settings: recombinant apo(a) + HepG2 conditioned media, 67 minutes, 37° C.; ^a = multiple tests
From the text: The lipoprotein(a), [Lp(a)], biochemical coupling assay (LPABC) is used to characterize inhibitors of the apolipoprotein(a), [apo(a)], apolipoproteinB-100, [apoB-100], coupling reaction that generates Lp(a).
Protocol Conditioned media from 293 cells (ATCC CRL-1573), permanently transfected with an apo(a) 17-kringle cDNA expression construct (pcDNA-AMP, In Vitrogen, Carlsbad, Calif.) using standard molecular biology techniques, was used as a source of recombinant apo(a). The 293 cell conditioned media containing the recombinant apo(a) is diluted 1:3 with phosphate buffered saline (PBS) and 90 μL is pipetted into each well of a 96-well plate and placed into a 37° C. incubator for 10 minutes. Twenty microliters of a 0.3 to 50 μM solution of a compound of the present invention in PBS is added to the warmed plate. Ninety microliters of HepG2 (ATCC HB-8065) cell conditioned media diluted 1:3 with PBS is added to the apo(a)/compound mixture and mixed by pipetting up and down 5 times. The reaction is incubated for 67 minutes in a 37° C. incubator. A 100 μL aliquot of the reaction is removed and assayed for its Lp(a) content by an enzyme linked immunosorbent assay (ELISA).

| Compound | pIC50 [1] | pIC50 [2] |
| --- | --- | --- |
| CCOC(=O)C(NCc1ccc(OC)cc1)c1cc(C(C)(C)C)c(O)c(C(C)(C)C)c1 (centres unmarked) [Example 32, (3,5-Di-tert-butyl-4-hydroxy-phenyl)-(4-methoxy-benzylamino)-acetic acid ethyl ester] | < 4.13 | 4.53 |
| CCOC(=O)C(NCc1cccnc1)c1cc(C(C)(C)C)c(O)c(C(C)(C)C)c1 (centres unmarked) [Example 2, (3,5-Di-tert-butyl-4-hydroxy-phenyl)-[(pyridin-3-ylmethyl)-amino]-acetic acid ethyl ester] | 4.70 | 5.00 |
| CCOC(=O)C(NCc1cc(O)c(OC)c(OC)c1)c1cc(C(C)(C)C)c(O)c(C(C)(C)C)c1 (centres unmarked) [Example 14, (3,5-Di-tert-butyl-4-hydroxy-phenyl)-(3-hydroxy-4,5-dimethoxy-benzylamino)-acetic acid ethyl ester] | 5.03 | 4.98 |
| CCOC(=O)C(NCc1ccc(N)cc1)c1cc(C(C)(C)C)c(O)c(C(C)(C)C)c1 (centres unmarked) [Example 30, (4-Amino-benzylamino)-(3,5-di-tert-butyl-4-hydroxy-phenyl)-acetic acid ethyl ester] | < 4.13 | 4.20 |
| CCOC(=O)C(NCc1cccc([N+](=O)[O-])c1)c1cc(C(C)(C)C)c(O)c(C(C)(C)C)c1 (centres unmarked) [Example 50, (3,5-Di-tert-butyl-4-hydroxy-phenyl)-(3-nitro-benzylamino)-acetic acid ethyl ester] | < 4.13 | 4.33 |
| CCOC(=O)C(NCC1CCCCC1)c1cc(C(C)(C)C)c(O)c(C(C)(C)C)c1 (centres unmarked) [Example 6, (Cyclohexylmethyl-amino)-(3,5-di-tert-butyl-4-hydroxy-phenyl)-acetic acid ethyl ester] | < 4.13 | 5.19 |
| CCOC(=O)C(NCc1ccc(Cl)cc1Cl)c1cc(C(C)(C)C)c(O)c(C(C)(C)C)c1 (centres unmarked) [Example 36, (3,5-Di-tert-butyl-4-hydroxy-phenyl)-(2,4-dichloro-benzylamino)-acetic acid ethyl ester] | < 4.13 | 4.32 |
| CCOC(=O)C(c1cc(C(C)(C)C)c(O)c(C(C)(C)C)c1)N1CCOCC1 (centres unmarked) [Example 54, (3,5-Di-tert-butyl-4-hydroxy-phenyl)-(N-morpholinyl)-acetic acid ethyl ester] | 5.89 | 6.10 |
| CCOC(=O)C(NCc1ccccn1)c1cc(C(C)(C)C)c(O)c(C(C)(C)C)c1 (centres unmarked) [Example 4] | 5.04 | 5.19 |
| CCOC(=O)C(NCc1ccccc1Cl)c1cc(C(C)(C)C)c(O)c(C(C)(C)C)c1 (centres unmarked) [Example 33, (2-Chloro-benzylamino)-(3,5-di-tert-butyl-4-hydroxy-phenyl)-acetic acid ethyl ester] | < 4.13 | 4.36 |
| CCOC(=O)C(NCc1ccccc1C(F)(F)F)c1cc(C(C)(C)C)c(O)c(C(C)(C)C)c1 (centres unmarked) [Example 47, (3,5-Di-tert-butyl-4-hydroxy-phenyl)-(2-trifluoromethyl-benzylamino)-acetic acid ethyl ester] | < 4.13 | 4.48 |
| CCOC(=O)C(NCc1ccc(N(C)C)cc1)c1cc(C(C)(C)C)c(O)c(C(C)(C)C)c1 (centres unmarked) [Example 38, (3,5-Di-tert-butyl-4-hydroxy-phenyl)-[4-dimethylamino-benzylamino]-acetic acid ethyl ester] | < 4.13 | 4.27 |
| CCOC(=O)C(NCc1ccc(O)c(OC)c1)c1cc(C(C)(C)C)c(O)c(C(C)(C)C)c1 (centres unmarked) [Example 49, (3,5-Di-tert-butyl-4-hydroxy-phenyl)-(4-hydroxy-3-methoxy-benzylamino)-acetic acid ethyl ester] | < 4.13 | 4.82 |
| CCOC(=O)C(Nc1cccnc1)c1cc(C(C)(C)C)c(O)c(C(C)(C)C)c1 (centres unmarked) [Example 1, (3,5-Di-tert-butyl-4-hydroxy-phenyl)-[(pyridin-3-yl)-amino]-acetic acid ethyl ester] | 5.12 | 5.19 |
| CCOC(=O)C(NCc1cc(Cl)cc(Cl)c1O)c1cc(C(C)(C)C)c(O)c(C(C)(C)C)c1 (centres unmarked) [Example 35, (3,5-Di-tert-butyl-4-hydroxy-phenyl)-(3,5-dichloro-2-hydroxy-benzylamino)-acetic acid ethyl ester] | < 4.13 | 4.80 |
| CCOC(=O)C(NCc1ccncc1)c1cc(C(C)(C)C)c(O)c(C(C)(C)C)c1 (centres unmarked) [Example 3, (3,5-Di-tert-butyl-4-hydroxy-phenyl)-[(pyridin-4-ylmethyl)-amino]-acetic acid ethyl ester] | 4.60 | 5.14 |
